These results are taken from ChEMBL document CHEMBL3988442, “University of Dundee, Small-Polar-MMV Screening Library” (2021).

The term pIC50 denotes the IC50 on a negative log10 scale, so that one unit is a factor of ten. Usually IC50 stands for the point on the concentration scale where inhibition reaches its midpoint.

The test system of one experiment is Leishmania donovani. As to the kind of experiment: Leishmania intramacrophage assay. Particulars: for IC50: Leishmania donovani. In kind it is functional, organism-based.
The test system of another experiment is Trypanosoma brucei. As to the kind of experiment: Trypanosoma brucei 72 hour study. It is filed as functional, organism-based. Particulars: for IC50: Trypanosoma brucei, 72 h.
Experiment [1] concerns the target T1, Ubiquitin-activating enzyme e1, putative (Leishmania donovani (strain BPK282A1), UniProt E9BSI1).
T1 sequence (E9BSI1 whole entry): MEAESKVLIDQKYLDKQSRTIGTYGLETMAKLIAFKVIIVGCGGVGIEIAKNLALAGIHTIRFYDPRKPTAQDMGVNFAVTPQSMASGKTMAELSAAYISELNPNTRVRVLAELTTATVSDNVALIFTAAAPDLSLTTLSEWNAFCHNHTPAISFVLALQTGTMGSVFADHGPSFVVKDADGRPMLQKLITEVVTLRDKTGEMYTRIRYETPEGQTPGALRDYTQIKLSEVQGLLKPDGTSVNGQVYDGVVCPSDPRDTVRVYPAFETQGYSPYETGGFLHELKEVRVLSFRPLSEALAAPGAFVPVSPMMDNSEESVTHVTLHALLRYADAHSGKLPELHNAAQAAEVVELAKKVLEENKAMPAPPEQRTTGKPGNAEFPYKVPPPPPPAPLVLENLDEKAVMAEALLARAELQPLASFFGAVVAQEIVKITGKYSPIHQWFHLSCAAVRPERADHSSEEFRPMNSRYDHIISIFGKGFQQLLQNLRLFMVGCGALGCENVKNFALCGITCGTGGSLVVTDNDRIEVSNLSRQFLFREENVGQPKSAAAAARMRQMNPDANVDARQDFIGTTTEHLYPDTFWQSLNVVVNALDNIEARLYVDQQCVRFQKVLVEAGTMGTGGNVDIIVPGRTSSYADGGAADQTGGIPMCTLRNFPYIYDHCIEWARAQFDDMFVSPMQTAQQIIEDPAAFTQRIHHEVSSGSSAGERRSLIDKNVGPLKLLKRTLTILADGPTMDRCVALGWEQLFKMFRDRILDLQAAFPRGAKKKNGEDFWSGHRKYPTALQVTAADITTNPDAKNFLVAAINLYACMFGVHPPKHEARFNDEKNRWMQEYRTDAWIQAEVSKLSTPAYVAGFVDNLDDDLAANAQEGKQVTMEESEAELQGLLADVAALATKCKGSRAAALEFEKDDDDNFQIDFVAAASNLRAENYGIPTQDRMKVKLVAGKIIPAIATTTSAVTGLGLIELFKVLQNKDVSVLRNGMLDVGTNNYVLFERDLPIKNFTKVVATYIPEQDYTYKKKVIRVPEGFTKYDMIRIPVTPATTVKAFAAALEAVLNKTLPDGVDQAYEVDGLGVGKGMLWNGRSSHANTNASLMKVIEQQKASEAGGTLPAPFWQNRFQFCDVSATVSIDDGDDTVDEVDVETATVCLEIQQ
Put plainly: Leishmania donovani Ubiquitin Activating Enzyme (LdE1). In kind it is functional.

Experiment [2] concerns the target T2, Histidine--tRNA ligase (Leishmania infantum, UniProt A4I591).
T2 sequence (A4I591 whole entry): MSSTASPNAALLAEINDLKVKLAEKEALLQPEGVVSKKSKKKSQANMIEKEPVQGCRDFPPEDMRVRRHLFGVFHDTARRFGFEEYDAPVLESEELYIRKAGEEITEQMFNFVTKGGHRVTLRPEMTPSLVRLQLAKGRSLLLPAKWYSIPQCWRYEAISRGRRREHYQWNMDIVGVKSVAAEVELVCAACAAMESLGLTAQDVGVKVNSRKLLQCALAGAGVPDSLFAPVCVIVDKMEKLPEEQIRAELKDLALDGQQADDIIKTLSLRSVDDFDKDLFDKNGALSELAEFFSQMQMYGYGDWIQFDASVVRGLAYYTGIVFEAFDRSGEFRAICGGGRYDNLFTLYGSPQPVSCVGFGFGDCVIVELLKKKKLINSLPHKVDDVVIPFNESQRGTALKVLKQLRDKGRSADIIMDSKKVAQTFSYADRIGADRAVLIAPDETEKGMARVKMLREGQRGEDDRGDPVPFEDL
Put plainly: Leishmania infantum Histidine tRNA synthetase (LdHisRS). In kind it is functional.

Experiment [3] addresses T3, Histidine--tRNA ligase (Trypanosoma cruzi (strain CL Brener), UniProt Q4DA54).
T3 sequence (Q4DA54 whole entry): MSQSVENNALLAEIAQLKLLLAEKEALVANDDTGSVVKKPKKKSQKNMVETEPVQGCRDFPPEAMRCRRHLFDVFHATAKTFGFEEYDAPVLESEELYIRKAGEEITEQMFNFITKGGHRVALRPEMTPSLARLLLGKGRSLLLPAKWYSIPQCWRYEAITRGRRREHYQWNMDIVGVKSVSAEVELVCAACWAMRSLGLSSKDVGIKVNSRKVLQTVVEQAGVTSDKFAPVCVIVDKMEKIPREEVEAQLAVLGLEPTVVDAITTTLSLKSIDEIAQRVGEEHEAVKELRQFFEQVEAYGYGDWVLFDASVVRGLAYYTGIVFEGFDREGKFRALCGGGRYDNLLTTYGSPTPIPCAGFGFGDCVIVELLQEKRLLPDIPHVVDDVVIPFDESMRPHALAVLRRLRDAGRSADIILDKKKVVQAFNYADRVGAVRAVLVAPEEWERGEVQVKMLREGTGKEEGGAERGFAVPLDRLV
Put plainly: Trypanosoma cruzi histidyl tRNA synthetase (Tc-HisRS). In kind it is functional.

For another experiment, the target named is Lysine--tRNA ligase (Plasmodium falciparum (isolate 3D7), UniProt Q8IDJ8). As to the kind of experiment: Pf-KRS-1 (Lysyl-RNA Synthetase-1, KRS-1, cytosolic KRS) from Plasmodium falciparum. Inhibitor assay, 384 well plate, luminescence read. It is filed as functional.
Lysine--tRNA ligase, sequence (Q8IDJ8 whole entry): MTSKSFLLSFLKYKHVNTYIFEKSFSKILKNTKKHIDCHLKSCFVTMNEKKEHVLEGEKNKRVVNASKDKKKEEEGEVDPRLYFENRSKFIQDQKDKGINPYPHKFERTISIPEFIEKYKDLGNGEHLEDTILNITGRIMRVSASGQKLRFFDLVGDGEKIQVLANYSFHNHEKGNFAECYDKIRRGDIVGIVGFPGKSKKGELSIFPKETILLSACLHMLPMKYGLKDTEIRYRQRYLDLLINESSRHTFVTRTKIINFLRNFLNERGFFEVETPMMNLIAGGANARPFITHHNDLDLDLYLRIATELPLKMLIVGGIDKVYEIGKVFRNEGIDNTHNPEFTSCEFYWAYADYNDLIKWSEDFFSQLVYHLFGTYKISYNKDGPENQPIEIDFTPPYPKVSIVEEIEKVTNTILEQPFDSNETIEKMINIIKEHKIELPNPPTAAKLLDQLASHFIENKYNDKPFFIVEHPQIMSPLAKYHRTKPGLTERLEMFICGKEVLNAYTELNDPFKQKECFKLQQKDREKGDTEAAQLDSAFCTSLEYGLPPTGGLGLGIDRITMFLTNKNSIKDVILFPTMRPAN
Experiment [4] has as its target T4, Coenzyme A biosynthesis bifunctional protein CoaBC (Mycobacterium tuberculosis (strain ATCC 25618 / H37Rv), UniProt P9WNZ1).
T4 sequence (P9WNZ1 whole entry): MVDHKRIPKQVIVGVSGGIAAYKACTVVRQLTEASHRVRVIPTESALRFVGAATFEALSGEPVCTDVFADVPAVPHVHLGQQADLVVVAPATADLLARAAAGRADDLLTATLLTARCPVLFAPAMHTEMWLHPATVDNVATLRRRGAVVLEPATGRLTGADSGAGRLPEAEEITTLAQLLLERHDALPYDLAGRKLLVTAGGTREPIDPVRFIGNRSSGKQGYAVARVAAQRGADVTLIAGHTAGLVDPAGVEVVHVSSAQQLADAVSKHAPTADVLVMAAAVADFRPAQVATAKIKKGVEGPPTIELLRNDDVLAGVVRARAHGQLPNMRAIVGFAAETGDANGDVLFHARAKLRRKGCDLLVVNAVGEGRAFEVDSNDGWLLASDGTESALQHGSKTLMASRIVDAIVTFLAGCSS
As to the kind of experiment: Biomol Green assay for MtCoaBC inhibitor, OD650 read. In kind it is functional.

Several values for one entry are separate records, joined by “and”; a condition that tells them apart may be missing. Equal entries are not always repeated. A value given as a limit tells only on which side of the number the result lay.

Regarding `Cc1[nH]/c(=N\C(=O)c2csc(NC3CC3)n2)sc1C`, the pIC50 was 4.559 in the experiment with Leishmania donovani; 5.049 and 4.932 in the experiment with Trypanosoma brucei. In addition, the concentration for half-maximal inhibition (IC50) was 47.7 µM in the experiment with Leishmania donovani and 13.2 µM in the experiment with Trypanosoma brucei.

Turning to `CCN1CC(CN(C)c2cc(C)nc(N)n2)Oc2ccccc21` (stereo not drawn), in the experiment on Leishmania donovani, the negative logarithm of the IC50 (pIC50) amounted to 4.519 and the concentration for half-maximal inhibition (IC50) is 35.1 µM. For the same compound, in the experiment with Trypanosoma brucei, the negative-log IC50 (pIC50) was 4.724 and 4.705; half-maximal inhibition (IC50) required 19.3 µM.

In the case of `Cc1ccc(CNC2CCN(CCc3ccncc3)CC2)cc1C`, the negative logarithm of the IC50 (pIC50) is 4.955 in the experiment on Leishmania donovani; 5.061 and 5.288 in the experiment on Trypanosoma brucei. Further, the half-maximal inhibitory concentration (IC50) is 15.6 µM in the experiment on Leishmania donovani and 6.7 µM with Trypanosoma brucei.

In the case of `COCC(C)NCc1nc(-c2ccc(C)cc2)c(-c2ccccn2)[nH]1` (stereo not drawn), in the experiment on Leishmania donovani, the negative-log IC50 (pIC50) amounted to 4.597 and the IC50 is 16 µM. Moreover, the IC50 in the experiment on Trypanosoma brucei is greater than 50.1 µM.

On to `CN1[C@H]2CC[C@@H]1CN(C(=O)c1ccc(-c3ccccc3)[nH]1)CC2`, for which the pIC50 is 4.659 with Leishmania donovani; 4.853 and 4.971 with Trypanosoma brucei. In addition, the concentration for half-maximal inhibition (IC50) with Leishmania donovani is 30.6 µM; in the experiment on Trypanosoma brucei, 9.62 µM.

In the experiment on Leishmania donovani, `CC(C)N1CCCC(C(=O)N2CCN(c3nsc4ccccc34)CC2)C1` (stereo not drawn) showed a pIC50 of 4.419 and an IC50 of 30.3 µM. In the experiment with Trypanosoma brucei, the negative logarithm of the IC50 (pIC50) is 4.562 and 4.572; the IC50 is 20.3 µM.

In the case of `Cc1c(C)c(C)c2[nH]c(-c3cn(C4CCNCC4)nn3)nc2c1C`, the pIC50 was 4.511 in the experiment with Leishmania donovani; 5.199 and 5.184 in the experiment with Trypanosoma brucei. The IC50 in the experiment on Leishmania donovani is 19.8 µM; with Trypanosoma brucei, 6.01 µM.

Consider `CN(C)c1ccc(-c2cc(C(=O)O)cc(S(=O)(=O)NC3CC3)c2)cc1`, for which, in the experiment on Trypanosoma brucei, the negative logarithm of the IC50 (pIC50) was 5.904 and 6.15; the IC50 is 0.716 µM.

As for `CCOC1CCN(C(=O)Nc2ccc(=O)n(C)c2)CC1`, the half-inhibitory concentration (IC50) in experiment [1] is greater than 100 µM; against Histidine--tRNA ligase [2], 0.995 µM and 1.6 µM and 2.46 µM and 3.11 µM; against Histidine--tRNA ligase [3], 23.9 µM and 23.3 µM.

For the compound `Cn1cc(NC(=O)N2CCC(Cc3ccccc3)CC2)ccc1=O`, the IC50 is greater than 100 µM in experiment [1]; 6.79 µM and 5.48 µM against Histidine--tRNA ligase [2]; 3.14 µM and 2.52 µM on Histidine--tRNA ligase [3].

On to `Cn1cc(NC(=O)C2CC(c3ccccc3)C2)ccc1=O` (stereo not drawn), for which the concentration for half-maximal inhibition (IC50) is greater than 100 µM in experiment [1]; 8.88 µM and 10.5 µM against Histidine--tRNA ligase [2]; 8.22 µM on Histidine--tRNA ligase [3].

In the case of `Cn1cc(NC(=O)N2CCC(OCc3ccccc3)CC2)ccc1=O`, the IC50 in experiment [1] was greater than 100 µM; at Histidine--tRNA ligase [2] it was 11.6 µM and 6.66 µM; against Histidine--tRNA ligase [3], 17 µM and 14.8 µM.

For `Cn1cc(NC(=O)N2CCC2c2ccccc2)ccc1=O` (stereo not drawn), the IC50 against Lysine--tRNA ligase is greater than 50.1 µM; in experiment [1], greater than 100 µM; against Histidine--tRNA ligase [2], 7.08 µM and 6.57 µM; at Histidine--tRNA ligase [3] it was 27.5 µM and 31.2 µM.

In the case of `O=C(NCCc1coc(-c2ccc(F)cc2)n1)NC1CC1`, in the experiment on Trypanosoma brucei, the negative-log IC50 (pIC50) was 5.662 and 5.643; the 50% inhibitory concentration (IC50) was 2.17 µM.

For `Cn1cc(NC(=O)N2CCC(CN3CCCC3)CC2)ccc1=O`, the 50% inhibitory concentration (IC50) (in experiment [1]; on Histidine--tRNA ligase [3]) was greater than 100 µM each time.

Regarding `Cn1cc(NC(=O)N2CCC(NS(C)(=O)=O)CC2)ccc1=O`, the IC50 was greater than 50.1 µM against Lysine--tRNA ligase; greater than 100 µM in experiment [1]; 2.32 µM and 2.57 µM against Histidine--tRNA ligase [2]; 52.1 µM and 49.1 µM on Histidine--tRNA ligase [3]; greater than 30.2 µM in experiment [4].

Turning to `CC(C)(C)C(=O)NCCc1ccn(-c2ccccc2)n1`, in the experiment with Trypanosoma brucei, the pIC50 was 5.66 and 5.649; the half-inhibitory concentration (IC50) is 2.22 µM.

As to `CCOC1CCCN(C(=O)NCCc2ccn(-c3ccccc3)n2)C1` (stereo not drawn), in the experiment on Trypanosoma brucei, the pIC50 was 6.745 and 6.727; the IC50 was 0.141 µM.

With `O=C(NCCc1ccn(-c2ccccc2)n1)N1CCC1`, in the experiment on Trypanosoma brucei, the negative-log IC50 (pIC50) was 6.164 and 6.213; the concentration for half-maximal inhibition (IC50) is 0.53 µM.

Take `CCOC(=O)N1CC2(CCNCC2)c2cc(Cl)ccc21.Cl`: the pIC50 in the experiment with Leishmania donovani is 4.68; in the experiment with Trypanosoma brucei, 4.722 and 4.602. The results for the 50% inhibitory concentration (IC50) in the experiment with Leishmania donovani and with Trypanosoma brucei were 22.3 µM and 20.3 µM, respectively.

On to `Cc1cccc(CN2CCCCC2c2n[nH]cc2-c2cc(C)no2)c1.Cl` (stereo not drawn), for which, in the experiment on Trypanosoma brucei, the negative logarithm of the IC50 (pIC50) is 4.638 and 4.693; inhibition was half-maximal at 19.8 µM (IC50).

For the compound `Cc1nc(C2(O)CCCNCC2)sc1CCOc1ccccc1F.Cl` (stereo not drawn), in the experiment with Trypanosoma brucei, the pIC50 was 4.648 and 4.682; the half-inhibitory concentration (IC50) is 21.9 µM.
